The values below are quoted from earlier work in paper PMC11703669 (Clinical cancer research : an official journal of the …, 2025).

The subject of this series is patients with R/R AML and a susceptible IDH1 mutation. The conditions noted are these: cited from earlier work.

Take `N#Cc1ccnc(N2C(=O)CC[C@H]2C(=O)N(c2cncc(F)c2)[C@H](C(=O)NC2CC(F)(F)C2)c2ccccc2Cl)c1` [Ivosidenib, ivosidenib]: the “differentiation syndrome, all grades” value was 19%; the “differentiation syndrome, grade 3 or higher” value was 13%; the “median duration of response” value is 8.2 months; the “rate of conversion of TD to TI” value is recorded as 37%. Moreover, the “CR + CRh rate” value (R/R AML with susceptible IDH1 mutation) is 33%. Under “patients with R/R AML”, the “rate of ALT elevation” value is listed as 15%, the “rate of AST elevation” value was 27% and the “rate of all grade QTc prolongation” value is listed as 26%.
